Strand notation (5' to 3'): a small letter for the sugar, then the base; units joined by * are phosphorothioate-linked, units joined directly phosphodiester-linked; [ ] holds rarer units or linkages, { } end groups; capitals alone tell only the bases. e = 2'-O-(2-methoxyethyl) (MOE); [5mC] = 5-methylcytosine; d = 2'-deoxy (DNA)
Assays:
human PKK mRNA [1] = experiment: Antisense inhibition of human PKK mRNA in HepaRG cells, 5,000 nM (Example 2); assay type: cell-based
Summary of the method: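 Percent inhibition of PKK mRNA is reported relative to untreated cells, after adjustment for total RNA by RIBOGREEN. Gapmers of 16–20 nucleosides with 2′-MOE wings were delivered at 5,000 nM by electroporation into HepaRG cells and left for roughly 24 hours before RNA isolation.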

human PKK mRNA [2] = experiment: Dose-dependent antisense inhibition of human PKK in HepaRG cells, 0.19-5.00 uM (Example 5); assay type: cell-based; settings: HepaRG cells; for percent inhibition of PKK at 0.19 μM / percent inhibition of PKK at 0.56 μM / percent inhibition of PKK at 1.67 μM / percent inhibition of PKK at 5.00 μM: electroporation, approximately 16 hours; for percent inhibition of PKK mRNA, 0.19 μM: 0.19 μM antisense oligonucleotide; for percent inhibition of PKK mRNA, 0.56 μM: 0.56 μM antisense oligonucleotide; for percent inhibition of PKK mRNA, 1.67 μM: 1.67 μM antisense oligonucleotide; for percent inhibition of PKK mRNA, 5.00 μM: 5.00 μM antisense oligonucleotide
Summary of the method: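 HepaRG cells (20,000/well) were electroporated with antisense oligonucleotide at 0.19, 0.56, 1.67 and 5.00 μM and treated for about 16 hours. PKK mRNA was quantified by qRT-PCR with primer probe set RTS3454, normalised to RIBOGREEN total RNA, and IC50 was derived per oligonucleotide.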

[3] = 4 point dose response, Table 39
[4] = human PKK mRNA in HepaRG cells, 5-10-5 gapmers, Table 14
[5] = 4 point dose response, Table 35
[6] = 4 point dose response, Table 36
[7] = 4 point dose response, Table 37
[8] = human PKK mRNA, HepaRG cells, 5-10-5 motif oligonucleotides targeting SEQ ID NO: 1 and 10

| Substance | percent inhibition of PKK at 0.19 μM (human PKK mRNA [2]; Table 39) | percent inhibition of PKK at 0.56 μM (human PKK mRNA [2]; Table 39) | percent inhibition of PKK at 1.67 μM (human PKK mRNA [2]; Table 39) | IC50 (human PKK mRNA [2]; [3]) | % inhibition (human PKK mRNA [1]; [4]) | percent inhibition of PKK mRNA, 0.19 μM (human PKK mRNA [2]) | percent inhibition of PKK mRNA, 0.56 μM (human PKK mRNA [2]) | percent inhibition of PKK mRNA, 1.67 μM (human PKK mRNA [2]) | percent inhibition of PKK mRNA, 5.00 μM (human PKK mRNA [2]) | IC50 (human PKK mRNA [2]; 0.19-5.00 μM) | % inhibition (human PKK mRNA [1]; [8]) | other results |
| --- | --- | --- | --- | --- | --- | --- | --- | --- | --- | --- | --- | --- |
| 546848 (eT*e[5mC]*eA*e[5mC]*eT*dG*dT*d[5mC]*d[5mC]*dT*dA*dT*dA*dT*d[5mC]*eA*e[5mC]*eT*eG*eT; antisense) [compound 546848] | 0% | 18% | 91% | 1000 nM |  |  |  |  |  |  |  | % inhibition (human PKK mRNA [1]; Table 13, human PKK mRNA in HepaRG cells, 5-10-5 gapmers): 86%; percent inhibition of PKK at 5.00 μM (human PKK mRNA [2]; Table 39): 97% |
| 546849 (eA*eT*e[5mC]*eA*e[5mC]*dT*dG*dT*d[5mC]*d[5mC]*dT*dA*dT*dA*dT*e[5mC]*eA*e[5mC]*eT*eG; antisense) [compound 546849] |  |  |  |  | 93% | 13% | 45% | 84% | 98% | 700 nM |  | percent inhibition of PKK at 0.19 μM (human PKK mRNA [2]; Table 35): 23%; percent inhibition of PKK at 0.56 μM (human PKK mRNA [2]; Table 35): 35%; percent inhibition of PKK at 1.67 μM (human PKK mRNA [2]; Table 35): 83%; percent inhibition of PKK at 5.00 μM (human PKK mRNA [2]; Table 35): 91%; IC50 (human PKK mRNA [2]; [5]): 700 nM |
| 546852 (e[5mC]*eA*eG*eT*eA*dT*d[5mC]*dA*d[5mC]*dT*dG*dT*d[5mC]*d[5mC]*dT*eA*eT*eA*eT*e[5mC]; antisense) [compound 546852] |  |  |  |  | 94% |  |  |  |  |  |  | percent inhibition of PKK at 0.19 μM (human PKK mRNA [2]; Table 35): 19%; percent inhibition of PKK at 0.56 μM (human PKK mRNA [2]; Table 35): 40%; percent inhibition of PKK at 1.67 μM (human PKK mRNA [2]; Table 35): 78%; percent inhibition of PKK at 5.00 μM (human PKK mRNA [2]; Table 35): 85%; IC50 (human PKK mRNA [2]; [5]): 800 nM |
| 546853 (eA*e[5mC]*eA*eG*eT*dA*dT*d[5mC]*dA*d[5mC]*dT*dG*dT*d[5mC]*d[5mC]*eT*eA*eT*eA*eT; antisense) [compound 546853] | 47% | 64% | 84% | 200 nM | 86% | 4% | 49% | 74% | 92% | 800 nM |  |  |
| 546854 (eT*eA*eA*e[5mC]*eA*dG*dT*dA*dT*d[5mC]*dA*d[5mC]*dT*dG*dT*e[5mC]*e[5mC]*eT*eA*eT; antisense) [compound 546854] |  |  |  |  | 90% |  |  |  |  |  |  | percent inhibition of PKK at 0.19 μM (human PKK mRNA [2]; Table 36): 23%; percent inhibition of PKK at 0.56 μM (human PKK mRNA [2]; Table 36): 39%; percent inhibition of PKK at 1.67 μM (human PKK mRNA [2]; Table 36): 83%; percent inhibition of PKK at 5.00 μM (human PKK mRNA [2]; Table 36): 94%; IC50 (human PKK mRNA [2]; [6]): 600 nM |
| 546855 (eA*eT*eA*eA*e[5mC]*dA*dG*dT*dA*dT*d[5mC]*dA*d[5mC]*dT*dG*eT*e[5mC]*e[5mC]*eT*eA; antisense) [compound 546855] |  |  |  |  | 87% |  |  |  |  |  |  | percent inhibition of PKK at 0.19 μM (human PKK mRNA [2]; Table 37): 18%; percent inhibition of PKK at 0.56 μM (human PKK mRNA [2]; Table 37): 7%; percent inhibition of PKK at 1.67 μM (human PKK mRNA [2]; Table 37): 30%; percent inhibition of PKK at 5.00 μM (human PKK mRNA [2]; Table 37): 82%; IC50 (human PKK mRNA [2]; [7]): 2200 nM |
| 546870 (e[5mC]*eT*eG*eT*eA*d[5mC]*d[5mC]*dT*dA*dT*dA*dA*d[5mC]*dT*d[5mC]*eT*eA*eA*e[5mC]*eA; antisense) [compound 546870] | 35% | 42% | 80% | 500 nM | 87% | 36% | 34% | 61% | 91% | 1000 nM |  | percent inhibition of PKK at 5.00 μM (human PKK mRNA [2]; Table 39): 95% |
| 546872 (e[5mC]*eA*e[5mC]*eT*eG*dT*dA*d[5mC]*d[5mC]*dT*dA*dT*dA*dA*d[5mC]*eT*e[5mC]*eT*eA*eA; antisense) [compound 546872] | 32% | 33% | 82% | 400 nM | 87% | 42% | 13% | 59% | 99% | 1400 nM |  | percent inhibition of PKK at 5.00 μM (human PKK mRNA [2]; Table 39): 94% |
| 546876 (eG*eT*e[5mC]*e[5mC]*eT*dA*dT*dA*dT*d[5mC]*dA*d[5mC]*dT*dG*dT*eA*e[5mC]*e[5mC]*eT*eG; antisense) [compound 546876] | 0% | 50% | 85% | 800 nM | 87% |  |  |  |  |  |  | percent inhibition of PKK at 5.00 μM (human PKK mRNA [2]; Table 39): 95% |
| 546877 (e[5mC]*eA*e[5mC]*eT*eG*dT*d[5mC]*d[5mC]*dT*dA*dT*dA*dT*d[5mC]*dA*e[5mC]*eT*eG*eT*eA; antisense) [compound 546877] |  |  |  |  | 88% |  |  |  |  |  |  | percent inhibition of PKK at 0.19 μM (human PKK mRNA [2]; Table 37): 0%; percent inhibition of PKK at 0.56 μM (human PKK mRNA [2]; Table 37): 19%; percent inhibition of PKK at 1.67 μM (human PKK mRNA [2]; Table 37): 75%; percent inhibition of PKK at 5.00 μM (human PKK mRNA [2]; Table 37): 80%; IC50 (human PKK mRNA [2]; [7]): 1300 nM |
| 546889 (eG*eT*e[5mC]*e[5mC]*eT*dA*dT*dG*dT*d[5mC]*dA*d[5mC]*dT*dG*dT*eA*e[5mC]*e[5mC]*eT*eA; antisense) [compound 546889] |  |  |  |  |  | 25% | 9% | 73% | 92% | 1400 nM | 93% | percent inhibition of PKK at 0.19 μM (human PKK mRNA [2]; Table 35): 23%; percent inhibition of PKK at 0.56 μM (human PKK mRNA [2]; Table 35): 54%; percent inhibition of PKK at 1.67 μM (human PKK mRNA [2]; Table 35): 78%; percent inhibition of PKK at 5.00 μM (human PKK mRNA [2]; Table 35): 91%; IC50 (human PKK mRNA [2]; [5]): 600 nM |
| 546894 (eT*e[5mC]*eA*e[5mC]*eT*dG*dT*d[5mC]*d[5mC]*dT*dA*dT*dG*dT*d[5mC]*eA*e[5mC]*eT*eG*eT; antisense) [compound 546894] |  |  |  |  |  |  |  |  |  |  | 91% | percent inhibition of PKK at 0.19 μM (human PKK mRNA [2]; Table 36): 15%; percent inhibition of PKK at 0.56 μM (human PKK mRNA [2]; Table 36): 47%; percent inhibition of PKK at 1.67 μM (human PKK mRNA [2]; Table 36): 50%; percent inhibition of PKK at 5.00 μM (human PKK mRNA [2]; Table 36): 93%; IC50 (human PKK mRNA [2]; [6]): 900 nM |
| 546896 (eG*eT*eA*eT*e[5mC]*dA*d[5mC]*dT*dG*dT*d[5mC]*d[5mC]*dT*dA*dT*eG*eT*e[5mC]*eA*e[5mC]; antisense) [compound 546896] |  |  |  |  |  | 35% | 60% | 83% |  | 400 nM | 75% | percent inhibition of PKK at 0.19 μM (human PKK mRNA [2]; Table 40): 0%; percent inhibition of PKK at 0.56 μM (human PKK mRNA [2]; Table 40): 45%; percent inhibition of PKK at 1.67 μM (human PKK mRNA [2]; Table 40): 82%; percent inhibition of PKK at 5.00 μM (human PKK mRNA [2]; Table 40): 97%; IC50 (human PKK mRNA [2]; 4 point dose response, Table 40): 800 nM |
| 546897 (eA*eG*eT*eA*eT*d[5mC]*dA*d[5mC]*dT*dG*dT*d[5mC]*d[5mC]*dT*dA*eT*eG*eT*e[5mC]*eA; antisense) [compound 546897] |  |  |  |  |  | 16% | 17% | 69% | 97% | 800 nM | 90% | percent inhibition of PKK at 0.19 μM (human PKK mRNA [2]; Table 36): 40%; percent inhibition of PKK at 0.56 μM (human PKK mRNA [2]; Table 36): 56%; percent inhibition of PKK at 1.67 μM (human PKK mRNA [2]; Table 36): 71%; percent inhibition of PKK at 5.00 μM (human PKK mRNA [2]; Table 36): 95%; IC50 (human PKK mRNA [2]; [6]): 400 nM |
| 546903 (e[5mC]*e[5mC]*eT*eA*eT*dA*dT*d[5mC]*dA*d[5mC]*dT*dG*dT*dA*d[5mC]*e[5mC]*eT*eA*eT*eA; antisense) [compound 546903] |  |  |  |  |  |  |  |  |  |  | 91% | percent inhibition of PKK at 0.19 μM (human PKK mRNA [2]; Table 36): 15%; percent inhibition of PKK at 0.56 μM (human PKK mRNA [2]; Table 36): 37%; percent inhibition of PKK at 1.67 μM (human PKK mRNA [2]; Table 36): 74%; percent inhibition of PKK at 5.00 μM (human PKK mRNA [2]; Table 36): 98%; IC50 (human PKK mRNA [2]; [6]): 800 nM |
| 546916 (e[5mC]*eG*eT*e[5mC]*eA*d[5mC]*dT*dG*dT*dA*d[5mC]*d[5mC]*dT*dA*dT*eA*eA*e[5mC]*eT*eG; antisense) [compound 546916] |  |  |  |  |  | 0% | 27% | 73% | 97% | 1000 nM |  | % inhibition (human PKK mRNA [1]; HepaRG cells, 5,000 nM antisense oligonucleotide, 5-10-5 gapmers, Table 16): 92%; percent inhibition of PKK at 0.19 μM (human PKK mRNA [2]; Table 35): 43%; percent inhibition of PKK at 0.56 μM (human PKK mRNA [2]; Table 35): 71%; percent inhibition of PKK at 1.67 μM (human PKK mRNA [2]; Table 35): 79%; percent inhibition of PKK at 5.00 μM (human PKK mRNA [2]; Table 35): 89%; IC50 (human PKK mRNA [2]; [5]): 200 nM |
